Starred links: 1 amine or outer side, 2 acyl side, 3 side chain; linkers in the order of their positions; H or OH if unused. Positions of bridges follow the written chain, without caps; N, C: chain ends. Non-standard residues stand in square brackets, D forms with d. Residues, ends and D or L forms follow the SMILES beside them. *: point of attachment. Orn(4R-OH,5R-OCH2CH2NMe3+) = C[N+](C)(C)CCO[C@@H](N[*:3])[C@H](O)C[C@H](N[*:1])C(=O)[*:2]; pTerphenylCO(4''-OnC5H11) = CCCCCOc1ccc(-c2ccc(-c3ccc(C(=O)*)cc3)cc2)cc1; hTyr(3S-OH,4S-OH) = N[C@H](C(=O)O)[C@H](O)[C@@H](O)c1ccc(O)cc1; Pro(3S-OH,4S-Me) = C[C@H]1CN[C@H](C(=O)O)[C@H]1O; Hyp = O=C(O)[C@@H]1C[C@@H](O)CN1
Columns and labels:
Format in all cases: physicochemical
[1] = Dynamic vapour sorption experiment; conditions: for weight gain during the sorption isotherm: from 40-80% RH, 10% RH increments
Method: Further weight loss above 160° C. may correspond with the onset of decomposition. A dynamic vapour sorption experiment of Type B material was performed. The sample was subjected to a step profile from 40-90% RH at 10% increments, followed by desorption from 90-0% RH at 10% increments and then adsorption from 0-40% RH at 10% increments.
A dynamic vapour sorption experiment of Type E material was performed. The sample was subjected to a step profile from 40 to 90% RH at 10% increments, followed by desorption from 90 to 0% RH at 10% increments and then adsorption from 0 to 40% RH at 10% increments. […] There was a larger weight gain above 80% RH.

[2] = Form stability as a function of ethanol activity (aEtOH)
Method: Compound 1 acetate and a solvent or solvent mixture were added to a vial and stirred at ambient temperature overnight to form a saturated suspension. Ethanol (EtOH) activity (aEtOH) of the solvent or solvent mixture was calculated using UNIFAC software. A further aliquot of the solvent or solvent mixture was added to the vial if the mixture was very thick. If all solids had dissolved, further amounts of compound 1 acetate were added and the mixture was stirred overnight. The slurry was then seeded with compound 1 acetate and compound 1 acetate-EtOH solvate and allowed to stir at ambient temperature for several days before isolation of solids and analysis by XRPD.
Compound 1 acetate Type E is a metastable solvate and converts to compound 1 acetate Type B on drying or storage at low ethanol activity (aEtOH<0.2). Type E was stable at an EtOH activity of >0.8.

[3] = Solid form stability of polymorph on drying or storage, analysed by XRPD
Method: Compound 1 acetate Type E (1 g) was added to a beaker and dried in the vacuum oven at 40° C. overnight (not more than 18 hours). The solid was analyzed by XRPD analysis and shown to be Type B (FIG. 6).
Four samples of compound 1 acetate Type E were added to vials and placed in a desiccator, under vacuum, for up to 7 days.

[4] = Slurrying in EtOH at 40° C., form transformation by XRPD; conditions: after 3 days
[5] = Ambient conditions (44-63% RH, 20-25° C.) for 5 days
[6] = ambient temperature in the desiccator

SMILES | weight loss during the equilibration hold ([1]; equilibration hold at 40% RH) | weight gain during the sorption isotherm [1] | EtOH activity at which the form was stable [2] | ethanol activity at which the form converts to Type B on storage ([2]; low ethanol activity) | XRPD Result [3, 5] | XRPD Result ([3]; Desiccator under vacuum at ambient conditions for 4 hours) | XRPD Result ([3]; Desiccator under vacuum at ambient conditions for 1 day) | XRPD Result ([3]; Desiccator under vacuum at ambient conditions for 5 days) | XRPD Result ([3]; Desiccator under vacuum at ambient conditions for 7 days) | time for which the form was stable [3, 6] | time to complete conversion to Type B [3, 6] | XRPD Result after drying ([3]; vacuum oven at 40° C. overnight (not more than 18 hours)) | form transformation to Type A (XRPD) [4]
CCCCCOc1ccc(-c2ccc(-c3ccc(C(=O)N[C@H]4C[C@@H](O)[C@@H](OCC[N+](C)(C)C)NC(=O)[C@@H]5[C@@H](O)[C@@H](C)CN5C(=O)[C@H]([C@@H](C)O)NC(=O)[C@H]([C@H](O)[C@@H](O)c5ccc(O)cc5)NC(=O)[C@@H]5C[C@@H](O)CN5C(=O)[C@H]([C@@H](C)O)NC4=O)cc3)cc2)cc1 [Type E] ({pTerphenylCO(4''-OnC5H11)}-[Orn(4R-OH,5R-OCH2CH2NMe3+)]T[Hyp][hTyr(3S-OH,4S-OH)]T[Pro(3S-OH,4S-Me)]; lactam 1-C) | ~18.5% | 5% | > 0.8 | < 0.2 | Type B | Type E | Type B + Type E | Type B | Type B | up to 4 hours | ≤ 5 days | Type B | –
CCCCCOc1ccc(-c2ccc(-c3ccc(C(=O)N[C@H]4C[C@@H](O)[C@@H](OCC[N+](C)(C)C)NC(=O)[C@@H]5[C@@H](O)[C@@H](C)CN5C(=O)[C@H]([C@@H](C)O)NC(=O)[C@H]([C@H](O)[C@@H](O)c5ccc(O)cc5)NC(=O)[C@@H]5C[C@@H](O)CN5C(=O)[C@H]([C@@H](C)O)NC4=O)cc3)cc2)cc1 [Type B] ({pTerphenylCO(4''-OnC5H11)}-[Orn(4R-OH,5R-OCH2CH2NMe3+)]T[Hyp][hTyr(3S-OH,4S-OH)]T[Pro(3S-OH,4S-Me)]; lactam 1-C) | – | 6% | – | – | Type B | – | – | – | – | – | – | – | no form transformation
